Laboratory results published in paper PMC10536063 (ACS Omega, 2023).

Legend:
[1] = tested on: MCF-10A (normal breast) cells; assay: MTT cytotoxicity bioassay against normal MCF-10A cells; type: cell-based; details: for IC50: Homo sapiens, MCF-10A, 48 h, read-out: IC50 ± SD, MCF-10A; for cytotoxicity versus normal MCF-10A cells (in words): MTT
CDK-2 kinase = CDK-2 kinase (Homo sapiens, UniProt P24941); assay: CDK-2 luminescence kinase inhibitory assay; type: biochemical
EGFR kinase = EGFR kinase (Homo sapiens, UniProt P00533); assay: EGFR-TK kinase inhibitory assay; type: biochemical
[2] = tested on: MCF-7 (breast cancer cells); assay: MTT cytotoxicity bioassay against MCF-7; type: cell-based, human; details: read-out: IC50 ± SD, MCF-7, 48 h, mean ± SD, n = 3

Sequence of EGFR kinase (P00533 25-1210): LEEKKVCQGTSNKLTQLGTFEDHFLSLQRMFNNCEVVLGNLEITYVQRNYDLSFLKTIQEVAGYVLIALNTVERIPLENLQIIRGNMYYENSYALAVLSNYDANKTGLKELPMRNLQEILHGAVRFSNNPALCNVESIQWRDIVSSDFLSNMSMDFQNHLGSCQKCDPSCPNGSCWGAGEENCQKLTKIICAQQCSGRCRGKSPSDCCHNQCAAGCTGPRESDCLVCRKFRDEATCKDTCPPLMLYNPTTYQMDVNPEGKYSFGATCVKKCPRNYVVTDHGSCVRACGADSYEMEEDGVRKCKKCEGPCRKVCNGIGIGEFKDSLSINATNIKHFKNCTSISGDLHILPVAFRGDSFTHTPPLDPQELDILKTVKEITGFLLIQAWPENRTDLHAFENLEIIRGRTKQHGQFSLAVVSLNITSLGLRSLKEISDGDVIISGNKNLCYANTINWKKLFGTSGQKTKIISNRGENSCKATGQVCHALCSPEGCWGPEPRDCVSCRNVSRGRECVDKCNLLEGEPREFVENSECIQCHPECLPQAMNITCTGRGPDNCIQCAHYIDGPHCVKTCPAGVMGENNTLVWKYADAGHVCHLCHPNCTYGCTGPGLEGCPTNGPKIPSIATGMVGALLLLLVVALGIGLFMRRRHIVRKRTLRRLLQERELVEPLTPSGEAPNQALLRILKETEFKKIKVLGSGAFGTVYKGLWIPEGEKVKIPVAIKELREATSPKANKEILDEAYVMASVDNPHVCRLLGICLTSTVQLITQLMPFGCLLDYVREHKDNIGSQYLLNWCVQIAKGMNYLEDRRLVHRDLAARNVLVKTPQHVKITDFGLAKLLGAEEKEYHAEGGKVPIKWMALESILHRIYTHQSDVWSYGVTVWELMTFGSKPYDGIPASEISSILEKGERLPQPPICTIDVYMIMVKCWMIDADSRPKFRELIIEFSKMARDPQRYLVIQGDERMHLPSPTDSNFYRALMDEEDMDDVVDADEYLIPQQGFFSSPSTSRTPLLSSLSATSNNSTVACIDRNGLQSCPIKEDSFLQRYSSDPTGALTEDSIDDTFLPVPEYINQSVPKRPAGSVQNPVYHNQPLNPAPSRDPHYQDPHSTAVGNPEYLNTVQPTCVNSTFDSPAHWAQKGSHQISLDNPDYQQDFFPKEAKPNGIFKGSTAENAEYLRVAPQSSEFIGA

Structure (SMILES) | IC50 [1] [µM] | IC50 (CDK-2 kinase) [µM] | IC50 (EGFR kinase) [µM] | cytotoxicity versus normal MCF-10A cells (in words) [1] | IC50 [2] [µM]
O=C(c1ccc2ccccc2c1)c1cn(-c2ccccc2)nc1C1=Nn2c(SCCSc3nnc4n3N=C(c3nn(-c5ccccc5)cc3C(=O)c3ccc5ccccc5c3)CS4)nnc2SC1 [Compound 8a, 1,2-Bis((6-(4-(2-naphthoyl)-1-phenyl-1H-pyrazol-3-yl))-7H-[1,2,4]triazolo[3,4-b][1,3,4]-thiadiazin-3-ylthio)ethane] | 38.9 ± 0.89 | – | – | – | –
O=C(c1ccc2ccccc2c1)c1cn(-c2ccccc2)nc1C1=Nn2c(nnc2SCc2ccccc2CSc2nnc3n2N=C(c2nn(-c4ccccc4)cc2C(=O)c2ccc4ccccc4c2)CS3)SC1 [Compound 10, 1,2-Bis((6-(4-(2-naphthoyl)-1-phenyl-1H-pyrazol-3-yl))-7H-[1,2,4]triazolo[3,4-b][1,3,4]-thiadiazin-3-ylthiomethyl)benzene] | 31.2 ± 0.9 | – | – | – | –
O=C(c1ccc2ccccc2c1)c1cn(-c2ccccc2)nc1C1=Nn2c(SCCCSc3nnc4n3N=C(c3nn(-c5ccccc5)cc3C(=O)c3ccc5ccccc5c3)CS4)nnc2SC1 [Compound 8b, 1,3-Bis((6-(4-(2-naphthoyl)-1-phenyl-1H-pyrazol-3-yl))-7H-[1,2,4]triazolo[3,4-b][1,3,4]-thiadiazin-3-ylthio)propane] | 29.6 ± 0.8 | – | – | – | –
O=C(c1ccc2ccccc2c1)c1cn(-c2ccccc2)nc1C(=O)CBr [Compound 2, 3-Bromoacetyl-4-(2-naphthoyl)-1-phenyl-1H-pyrazole] | 37.5 ± 1.9 | – | – | – | –
O=C(c1ccc2ccccc2c1)c1cn(-c2ccccc2)nc1C1=Nn2cnnc2SC1 [Compound 4a, 6-(4-(2-Naphthoyl)-1-phenyl-1H-pyrazol-3-yl)-7H-[1,2,4]triazolo[3,4-b][1,3,4]thiadiazine] | ≥ 50 | – | – | – | –
O=C(c1ccc2ccccc2c1)c1cn(-c2ccccc2)nc1C1=Nn2c(S)nnc2SC1 [Compound 4c, 6-(4-(2-Naphthoyl)-1-phenyl-1H-pyrazol-3-yl)-7H-[1,2,4]triazolo[3,4-b][1,3,4]thiadiazin-3-thiol] | 46.7 ± 1.7 | 0.165 ± 0.00314 | 0.0896 ± 0.0024 | safe | –
O=C(c1ccc2ccccc2c1)c1cn(-c2ccccc2)nc1C1=Nn2c(nnc2-c2ccccc2)SC1 [Compound 4b, 3-Phenyl-6-(4-(2-naphthoyl)-1-phenyl-1H-pyrazol-3-yl)-7H-[1,2,4]triazolo[3,4-b][1,3,4]-thiadiazine] | ≥ 50 | 0.114 ± 0.0029 | 0.0717 ± 0.0021 | safe | 3.16 ± 0.29
C#Cc1cccc(Nc2ncnc3cc(OCCOC)c(OCCOC)cc23)c1 [Erlotinib, reference compound] | ≥ 50 | – | – | – | –
